The source of these data is US20260365653A1, “IRREVERSIBLE MUTEGFR INHIBITORS” (Bayer Aktiengesellschaft, priority 2022, published 2026).

The conditions of data set [1]: background statement on approved drugs; cited from earlier work.
For data set [2], the system named is classical activating EGFR mutations and brain metastasis. The note with it: EGFR mutant NSCLC; cited from earlier work.
For another data set, the system named is EGFR T790M. The note with it: T790M mutant patients; cited from earlier work.
For data set [3], the system named is EGFR exon20 insertion mutations. The note with it: cited from earlier work.
For data set [4], the system named is mutations in exons 18, 19, and 21 of EGFR. The following applies: cited from earlier work.
In a further data set the test system is EGFR exon20 insertions. The following applies: patients with EGFR exon20 insertions; cited from earlier work.
Data set [5] concerns the target T1, mutEGFR (D770_N771insNPG, T790) (Homo sapiens, UniProt P00533, INS770NPG/T790M).
T1 construct: exact insNPG construct not described; in-house EGFR proteins were N-terminal GST fusions from baculovirus/insect cells (borders R669-A1210 given only for WT, insSVD, insASV)
Kind of data set: mutEGFR (D770_N771insNPG, T790) kinase assay. The format is biochemical. The source says:
The different EGFR proteins used in the biochemical kinase activity inhibition assays were generated inhouse by expression in insect cells using Baculo Virus system and subsequent purification as described in the following paragraphs.
The cDNAs encoding the various protein sequences from human EGFR human (P00533) were optimized for expression in eukaryotic cells and synthesized by the GeneArt Technology at Life Technologies.

Data set [6] deals with BA/F3 (EGFR D770_N771 insSVD T790M) cells. The data set can be described thus: Ba/F3-EGFR-insSVD T790M cell survival assay (Cell Titer-Glo). The following applies: Ba/F3 EGFR-D770-N771ins_SVD, 48 h. The format is cell-based. As for the experimental part:
Cellular Data Description (WT, insSVD, insSVD T790M) 293T cells from ATCC were transfected with pBABEpuro expression constructs for WT EGFR or EGFR-insSVD, or EGFR-insSVD T790M, and pCL-Eco packaging vector using Fugene-6 transfection reagent from Promega. Plates were incubated at 37° C. for 48 h. Retrovirus was harvested by filtering the media supernatant through a 0.45 μm filter.
Ba/F3 cells purchased from DSMZ were grown in RPMI+10% FBS+10 ng/ml IL-3 and infected with filtered retroviral supernatant at a 1:2 dilution. Polybrene was added to a concentration of 8 μg/mL, plates were spun for 90 min, and incubated for 16 h at 37° C. 2 μg/mL puromycin was added to the infected cells 24 h after infection and cells were continually grown in the presence of puromycin and 10 ng/ml IL-3. Following stably expressing Ba/F3 cell lines were generated: Ba/F3-EGFR-WT, Ba/F3-EGFR-insSVD, Ba/F3-EGFR-insSVD T790M, (Ba/F3-vector-control).
For cell survival assays, Ba/F3 cells were grown to a density of 1-2 million cells per mL, spun down and resuspended in media without IL-3, and replated at a concentration of 200,000-500,000 cells per mL. The cells ectopically expressing WT EGFR, EGFR-insSVD, or EGFR-insSVD T790M were plated with 10 ng/ml Millipore Culture grade EGF. The cells ectopically expressing pBABEpuro empty vector were plated with 10 ng/mL IL-3.
2 days later, cells were plated in 50 µL in a 384 well plate at a concentration of 4000 cells per well for cells assayed in the absence of IL-3 and 2000 cells per well for cells assayed in the presence of IL-3. 100 nL of compound was added to each well using a 100 nL pin head, and plates were incubated at 37° C. for 48 h.
Cell viability was measured by adding 20 μL of Cell Titer-Glo Luminescent Cell Viability Reagent diluted 1:3 in PBS. Plates were sealed with Perkin Elmer Top-Seal, inverted several times to mix, and immediately centrifuged at 1000 rpm for 2 min. Plates were incubated in low light conditions for 8-10 min and luminescence was measured.
(In general: In ATP-based viability assays light output follows the ATP content of the culture.)

Data set [7] has as its target T2, mutEGFR (D770_N771insSVD) (Homo sapiens, UniProt P00533, DUP768-770).
T2 construct: GST-EGFR #3 (SVD between D770 and N771); made in house; host or cells: Sf9 insect cells (baculovirus)
Kind of data set: Exon20-Mutant-EGFR (D770_N771insSVD) kinase assay (TR-FRET). The format is biochemical. A general note: TR-FRET usually uses a lanthanide donor and a delayed reading to cut background.

A further data set deals with BA/F3 (insSVD) cells. Kind of data set: Ba/F3-EGFR-insSVD cell survival assay (Cell Titer-Glo). The data set is classed as cell-based. An outline of the steps: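 CellTiter-Glo luminescence read after 48 h compound exposure at 37° C. Cells: IL-3-independent Ba/F3 lines transduced with EGFR-insSVD or EGFR-insSVD T790M, maintained on 10 ng/ml EGF and seeded at 4000 per well.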

In another data set the test system is wild-type EGFR. The note with it: cited from earlier work.
Where [8] appears, read: Table 3a, cell survival, Cell Titer-Glo, with 10 ng/ml EGF, without IL-3.
Where [9] appears, read: mutEGFR (D770_N771insSVD) kinase assay IC50, Table 2a, D770_N771insSVD, 2 mM ATP.

Broadly, the IC50 is the midpoint of a concentration-inhibition curve.

T2 sequence (P00533 with tags, fused parts or gaps DUP768-770): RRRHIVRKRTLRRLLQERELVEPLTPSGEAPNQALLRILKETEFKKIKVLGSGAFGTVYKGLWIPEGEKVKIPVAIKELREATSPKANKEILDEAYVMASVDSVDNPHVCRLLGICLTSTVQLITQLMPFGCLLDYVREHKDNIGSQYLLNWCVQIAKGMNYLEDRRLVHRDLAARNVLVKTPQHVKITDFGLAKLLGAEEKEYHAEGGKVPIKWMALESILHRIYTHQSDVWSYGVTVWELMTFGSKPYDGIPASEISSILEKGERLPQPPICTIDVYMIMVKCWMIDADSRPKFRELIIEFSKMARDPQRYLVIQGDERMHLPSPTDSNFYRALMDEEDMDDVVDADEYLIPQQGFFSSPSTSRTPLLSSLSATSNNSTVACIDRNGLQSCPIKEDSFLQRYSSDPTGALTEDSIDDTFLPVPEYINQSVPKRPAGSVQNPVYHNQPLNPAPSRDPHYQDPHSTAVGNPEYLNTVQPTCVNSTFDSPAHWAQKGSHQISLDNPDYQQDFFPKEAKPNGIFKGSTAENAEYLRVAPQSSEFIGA
T1 sequence (P00533 with tags, fused parts or gaps INS770NPG/T790M limits assumed): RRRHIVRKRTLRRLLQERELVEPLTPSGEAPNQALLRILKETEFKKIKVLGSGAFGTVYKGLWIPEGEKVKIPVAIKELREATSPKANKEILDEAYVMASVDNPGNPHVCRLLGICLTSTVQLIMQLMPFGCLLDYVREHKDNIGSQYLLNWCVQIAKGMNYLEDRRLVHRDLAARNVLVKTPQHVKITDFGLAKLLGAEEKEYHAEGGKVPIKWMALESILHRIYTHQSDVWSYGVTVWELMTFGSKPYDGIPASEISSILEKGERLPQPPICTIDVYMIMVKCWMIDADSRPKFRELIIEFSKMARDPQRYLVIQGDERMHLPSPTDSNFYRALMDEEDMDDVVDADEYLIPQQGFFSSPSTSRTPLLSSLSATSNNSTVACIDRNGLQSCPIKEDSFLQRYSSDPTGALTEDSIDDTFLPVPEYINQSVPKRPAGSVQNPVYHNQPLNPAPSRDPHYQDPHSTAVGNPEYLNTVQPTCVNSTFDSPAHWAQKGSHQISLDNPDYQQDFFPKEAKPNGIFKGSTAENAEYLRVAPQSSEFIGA

On to `C=CC(=O)Nc1cc(Nc2ncc(C(=O)OC(C)C)c(-c3cn(C)c4ccccc34)n2)c(OC)cc1N(C)CCN(C)C` [mobocertinib, reference compound], for which the blood-brain-barrier permeability entry in data set [1] is given as “only limited blood-brain-barrier permeability”.
For amivantamab, in data set [1], the blood-brain-barrier permeability entry is on record as “only limited blood-brain-barrier permeability”.
Turning to `C=CC(=O)Nc1cc(Nc2nccc(-c3cn(C)c4ccccc34)n2)c(OC)cc1N(C)CCN(C)C` [osimertinib], the CNS activity result in data set [2] is “clearly improved CNS activity”. Besides, in the data set with EGFR T790M, the efficacy in patients entry is “effective in T790M mutant patients”. The “activity on EGFR exon20 insertion mutations” value in [3] is on record as “only limited activity”.
Consider `C#Cc1cccc(Nc2ncnc3cc(OCCOC)c(OCCOC)cc23)c1` [erlotinib], for which, in data set [4], the durability of response entry is listed as “often not durable” and the efficacy in patients entry is listed as “effective in patients”. In the data set on EGFR exon20 insertions, the overall survival entry was “significantly reduced”, the progression-free survival result is “significantly reduced” and the response rates entry was “particular low response rates”.
Consider `COc1cc2ncnc(Nc3ccc(F)c(Cl)c3)c2cc1OCCCN1CCOCC1` [gefitinib], for which, in data set [4], the durability of response entry is recorded as “often not durable” and the efficacy in patients result is recorded as “effective in patients”. In the data set on EGFR exon20 insertions, the overall survival entry is on record as “significantly reduced”, the progression-free survival entry was “significantly reduced” and the response rates result is on record as “particular low response rates”.
As to `C=CC(=O)N1CCn2nc(-c3ccc(F)cc3)c(-c3ccnc(NC(=O)C4CC4)c3)c2C1` [Example 7, N-{4-[2-(4-fluorophenyl)-5-(prop-2-enoyl)-4,5,6,7-tetrahydropyrazolo[1,5-a]pyrazin-3-yl]pyridin-2-yl}cyclopropanecarboxamide], the concentration for half-maximal inhibition (IC50) in data set [5] (Table 2a, D770_N771insNPG) amounted to 0.408 nM; in [5] (Table 2b (from US Priority Patent Application), mutEGFR D770_N771insNPG), 0.408 nM; in [6] (setting [8]), 60.1 nM; in data set [6] (Table 3b, Ba/F3 EGFR-insSVD T790M) it was 60.1 nM; in [7] (setting [9]), 0.209 nM; in [7] (mutEGFR (D770_N771insSVD) kinase assay IC50, Table 2b (from US Priority Patent Application), mutEGFR D770_N771insSVD) it was 0.209 nM. Besides, the 50% inhibitory concentration (IC50) is 12.4 nM with BA/F3 (insSVD) cells (Mus musculus, BaF3, 48 h, Table 3a, cell survival, Cell Titer-Glo, with 10 ng/ml EGF, without IL-3) and 12.4 nM in the data set on BA/F3 (insSVD) cells (Mus musculus, BaF3, 48 h, Table 3b, Ba/F3 EGFR-insSVD).
As for `C=CC(=O)N1C(C)c2c(-c3ccncc3)c(-c3ccc(Cl)cc3F)nn2C[C@@H]1C` (single isomer, unassigned; isomer 2) [Example 293], the half-inhibitory concentration (IC50) stood at 96 nM in [5] (Table 2a, D770_N771insNPG); 9980 nM in data set [6] (setting [8]); 50.3 nM in data set [7] (setting [9]); 380 nM in the data set on BA/F3 (insSVD) cells (Table 3a, cell survival, Cell Titer-Glo, with 10 ng/ml EGF, without IL-3, 48 h).
In the case of `CN(C)C/C=C/C(=O)Nc1cc2c(Nc3ccc(F)c(Cl)c3)ncnc2cc1O[C@H]1CCOC1` [afatinib], in [4], the durability of response result is on record as “often not durable” and the efficacy in patients entry is listed as “effective in patients”. Besides, the “inhibition of wild-type EGFR” value in the data set with wild-type EGFR is “potent inhibitors of wild-type EGFR”. Further, in the data set with EGFR exon20 insertions, the overall survival result is reported as “significantly reduced”, the progression-free survival entry is on record as “significantly reduced” and the response rates entry is “particular low response rates”.
